Test results: patent publication US11464749B2, “Bismuth-thiol compositions and methods of use” (Microbion Corporation, priority 2018, dated 2022)
In brackets after ≈: the same amount, converted by molar mass. Read-outs that look alike come from different tables or passages of the source. Blank lines part the entries; values can stand above or below the compound they belong to.

Key:
Neisseria gonorrhoeae = experiment: Agar dilution MIC (Example 11); type: cell-based; conditions: read-out: MIC
S. agalactiae = experiment: Broth microdilution MIC (Example 11); conditions: Streptococcus agalactiae
S. pyogenes = experiment: Broth microdilution MIC (Example 11); conditions: Streptococcus pyogenes
E. faecalis = experiment: Broth microdilution MIC (Example 11); conditions: Enterococcus faecalis, VRE, VRE Lev^R Cip^R Ery^R
S. pneumoniae = experiment: Broth microdilution MIC (Example 11); conditions: Streptococcus pneumoniae
[1] = test system: Staphylococcus aureus (MRSA); experiment: Broth microdilution MIC (Example 11)
Klebsiella pneumoniae = experiment: Broth microdilution MIC (Example 12)
Escherichia coli = experiment: Broth microdilution MIC (Example 12)
[2] = test system: vancomycin-intermediate Staphylococcus aureus (VISA); experiment: Broth microdilution MIC (Example 12)
Acinetobacter baumannii = experiment: Broth microdilution MIC (Example 12)
Pseudomonas aeruginosa = experiment: Broth microdilution MIC (Example 12)

Compound: CO/N=C(\C(=O)N[C@@H]1C(=O)N2C(C(=O)O)=C(CSc3nc(=O)c(=O)[nH]n3C)CS[C@H]12)c1csc(N)n1 [Ceftriaxone]
- MIC (Neisseria gonorrhoeae; ATCC49226, N. gonorrhoeae MMX 683 (ATCC 49226), QC): 0.015 µg/mL (≈ 0.027 µM)
- MIC (Neisseria gonorrhoeae; N. gonorrhoeae MMX 6757, CTX NS): 1 µg/mL (≈ 1.8 µM)
- MIC (Neisseria gonorrhoeae; N. gonorrhoeae MMX 6791, CIP^R): 0.06 µg/mL (≈ 0.108 µM)
- MIC (Neisseria gonorrhoeae; N. gonorrhoeae MMX 6792, CIP^R): 0.06 µg/mL (≈ 0.108 µM)
- MIC (Neisseria gonorrhoeae; N. gonorrhoeae MMX 6793, CIP^R): 0.03 µg/mL (≈ 0.0541 µM)

- MIC (S. agalactiae; S. agalactiae MMX 3741, ERY^R CC^R): 8 µg/mL (≈ 10.9 µM)
- MIC (S. agalactiae; S. agalactiae MMX 3743, ERY^R CC^R): > 8 µg/mL
- MIC (S. agalactiae; S. agalactiae MMX 4077, ERY^R CC^R): > 8 µg/mL
- MIC (S. agalactiae; S. agalactiae MMX 4079, ERY^R CC^R Pen^R MEM^R): > 8 µg/mL
- MIC (S. agalactiae; S. agalactiae MMX 4086, ERY^R CC^R): > 8 µg/mL
- MIC (S. pyogenes; S. pyogenes MMX 3068, Ery^R): > 8 µg/mL
- MIC (S. pyogenes; S. pyogenes MMX 3820, ERY^R CLI^R): > 8 µg/mL
- MIC (S. pyogenes; S. pyogenes MMX 3919, ERY^R): > 8 µg/mL
- MIC (S. pyogenes; S. pyogenes MMX 3929, ERY^R CC^R): > 8 µg/mL
- MIC (S. pyogenes; S. pyogenes MMX 5091, ERY^R CC^R): > 8 µg/mL
- MIC (E. faecalis; E. faecalis MMX 8960): > 64 µg/mL
- MIC (E. faecalis; E. faecalis MMX 8961): > 64 µg/mL
- MIC (E. faecalis; E. faecalis MMX 8962): > 64 µg/mL
- MIC (S. pneumoniae; ATCC49619, S. pneumoniae MMX 6837 (ATCC 49619), QC): 0.03 µg/mL (≈ 0.0409 µM)
- MIC (S. pneumoniae; S. pneumoniae MMX 880, Lev^R SXT^R CC^R Ery^R Pen^R): > 8 µg/mL
- MIC (S. pneumoniae; S. pneumoniae MMX 937, Mem^R SXT^R CC^R Ery^R Pen^R): > 8 µg/mL
- MIC (S. pneumoniae; S. pneumoniae MMX 3959, CC^R Ery^R): > 8 µg/mL
- MIC (S. pneumoniae; S. pneumoniae MMX 5440, Mem^R SXT^R CC^R Ery^R Pen^R): > 8 µg/mL
- MIC (S. pneumoniae; S. pneumoniae MMX 5445, Mem^R SXT^R CC^R Ery^R Pen^R): > 8 µg/mL
- MIC (S. pneumoniae; S. pneumoniae MMX 8133, Mem^R SXT^R CC^R Ery^R Pen^R): > 8 µg/mL
- MIC ([1]; ATCC29213|MRSA|MSSA, S. aureus MMX 101 (ATCC 29213), QC, MSSA): 0.5 µg/mL (≈ 0.681 µM)
- MIC ([1]; MRSA, S. aureus MMX 5373, MRSA Lev^R Cip^R CC^R Ery^R Ox^R): > 64 µg/mL
- MIC ([1]; MRSA, S. aureus MMX 6311, MRSA Lev^R Cip^R CC^R Ery^R Ox^R): > 64 µg/mL
- MIC ([1]; MRSA, S. aureus MMX 9203, MRSA Lev^R Cip^R Ery^R Ox^R): > 64 µg/mL
- MIC ([1]; MRSA, S. aureus MMX 9204, MRSA Lev^R Cip^R Ery^R Ox^R): > 64 µg/mL
- MIC ([1]; MRSA, S. aureus MMX 9205, MRSA Lev^R Cip^R CC^R Ery^R Ox^R): > 64 µg/mL
Compound: CC[C@H]1OC(=O)[C@H](C)[C@@H](O[C@H]2C[C@@](C)(OC)[C@@H](O)[C@H](C)O2)[C@H](C)[C@@H](O[C@@H]2O[C@H](C)C[C@H](N(C)C)[C@H]2O)[C@](C)(O)C[C@@H](C)C(=O)[C@H](C)[C@@H](O)[C@]1(C)O [Erythromycin]

- MIC (Klebsiella pneumoniae; K. pneumoniae ATCC BAA-1705, ESBL/KPC): >8 µg/mL
- MIC (Klebsiella pneumoniae; K. pneumoniae ATCC BAA-1705, QC organism (Table 102)): >8 µg/mL
- MIC (Klebsiella pneumoniae; K. pneumoniae CDC 112, KPC): 4 µg/mL (≈ 11.1 µM)
- MIC (Klebsiella pneumoniae; K. pneumoniae CDC 113, ESBL/KPC): 4 µg/mL (≈ 11.1 µM)
- MIC (Klebsiella pneumoniae; K. pneumoniae CDC 115, ESBL/KPC): >8 µg/mL
- MIC (Klebsiella pneumoniae; K. pneumoniae CDC 120, ESBL/KPC): >8 µg/mL
- MIC (Klebsiella pneumoniae; K. pneumoniae CDC 126, ESBL/KPC): 0.015 µg/mL (≈ 0.0415 µM)
- MIC (Klebsiella pneumoniae; K. pneumoniae CDC 129, ESBL/KPC): >8 µg/mL
- MIC (Klebsiella pneumoniae; K. pneumoniae CDC 135, ESBL/VIM): >8 µg/mL
- MIC (Klebsiella pneumoniae; K. pneumoniae CDC 138, ESBL/NDM): >8 µg/mL
- MIC (Klebsiella pneumoniae; K. pneumoniae CDC 158, ESBL/NDM/OXA): 4 µg/mL (≈ 11.1 µM)
- MIC (Klebsiella pneumoniae; K. pneumoniae MMX 9029, ESBL): 0.12 µg/mL (≈ 0.332 µM)
- MIC (Escherichia coli; E. coli ATCC 35218, ESBL): ≤0.008 µg/mL
- MIC (Escherichia coli; E. coli ATCC 35218, QC organism (Table 102)): ≤0.008 µg/mL
- MIC (Escherichia coli; E. coli ATCC BAA-2471, NDM): >8 µg/mL
- MIC (Escherichia coli; E. coli CDC 114, ESBL/KPC): 4 µg/mL (≈ 11.1 µM)
- MIC (Escherichia coli; E. coli CDC 118, ESBL/NDM): 8 µg/mL (≈ 22.1 µM)
- MIC (Escherichia coli; E. coli CDC 435, NDM): >8 µg/mL
- MIC (Escherichia coli; E. coli CDC 451, KPC): >8 µg/mL
- MIC (Escherichia coli; E. coli CDC 503, ESBL/NDM): >8 µg/mL
- MIC (Escherichia coli; E. coli MMX 5745, KPC): 8 µg/mL (≈ 22.1 µM)
- MIC (Escherichia coli; E. coli MMX 5755, ESBL): 8 µg/mL (≈ 22.1 µM)
- MIC (Escherichia coli; E. coli MMX 5756, ESBL): 4 µg/mL (≈ 11.1 µM)
- MIC (Escherichia coli; E. coli MMX 5758, ESBL): 8 µg/mL (≈ 22.1 µM)
- MIC ([2]; S. aureus NRS 1 (hVISA)): 4 µg/mL (≈ 11.1 µM)
- MIC ([2]; S. aureus NRS 2): 4 µg/mL (≈ 11.1 µM)
- MIC ([2]; S. aureus NRS 3): >8 µg/mL
- MIC ([2]; S. aureus NRS 4): 4 µg/mL (≈ 11.1 µM)
- MIC ([2]; S. aureus NRS 13): 0.12 µg/mL (≈ 0.332 µM)
- MIC ([2]; S. aureus NRS 18): 4 µg/mL (≈ 11.1 µM)
- MIC ([2]; S. aureus NRS 22): 8 µg/mL (≈ 22.1 µM)
- MIC ([2]; S. aureus NRS 24 (hVISA)): >8 µg/mL
- MIC ([2]; S. aureus NRS 27): 8 µg/mL (≈ 22.1 µM)
- MIC (Acinetobacter baumannii; A. baumannii CDC 273, ESBL/OXA): >8 µg/mL
- MIC (Acinetobacter baumannii; A. baumannii CDC 274, ESBL/OXA): 8 µg/mL (≈ 22.1 µM)
- MIC (Acinetobacter baumannii; A. baumannii CDC 275, ESBL/OXA): 4 µg/mL (≈ 11.1 µM)
- MIC (Acinetobacter baumannii; A. baumannii CDC 277, ESBL/OXA): 8 µg/mL (≈ 22.1 µM)
- MIC (Acinetobacter baumannii; A. baumannii CDC 284, ESBL/OXA): 8 µg/mL (≈ 22.1 µM)
- MIC (Acinetobacter baumannii; A. baumannii CDC 307, OXA): 8 µg/mL (≈ 22.1 µM)
- MIC (Acinetobacter baumannii; A. baumannii CDC 308, ESBL/OXA): 4 µg/mL (≈ 11.1 µM)
- MIC (Acinetobacter baumannii; A. baumannii CDC 311, OXA): 2 µg/mL (≈ 5.53 µM)
- MIC (Acinetobacter baumannii; A. baumannii CDC 312, OXA): 2 µg/mL (≈ 5.53 µM)
- MIC (Acinetobacter baumannii; A. baumannii CDC 313, ESBL/OXA): 2 µg/mL (≈ 5.53 µM)
- MIC (Acinetobacter baumannii; A. baumannii NCTC 13304, OXA): 1 µg/mL (≈ 2.77 µM)
- MIC (Pseudomonas aeruginosa; P. aeruginosa CDC 230, VIM/OXA): 8 µg/mL (≈ 22.1 µM)
- MIC (Pseudomonas aeruginosa; P. aeruginosa CDC 231, KPC/OXA): >8 µg/mL
- MIC (Pseudomonas aeruginosa; P. aeruginosa CDC 241, IMP/OXA): 8 µg/mL (≈ 22.1 µM)
- MIC (Pseudomonas aeruginosa; P. aeruginosa CDC 246, NDM/OXA): >8 µg/mL
- MIC (Pseudomonas aeruginosa; P. aeruginosa CDC 250, NDM/OXA): >8 µg/mL
- MIC (Pseudomonas aeruginosa; P. aeruginosa CDC 356, KPC): 0.12 µg/mL (≈ 0.332 µM)
- MIC (Pseudomonas aeruginosa; P. aeruginosa CDC 439, IMP): 8 µg/mL (≈ 22.1 µM)
- MIC (Pseudomonas aeruginosa; P. aeruginosa CDC 444, VIM): 8 µg/mL (≈ 22.1 µM)
- MIC (Pseudomonas aeruginosa; P. aeruginosa CDC 457, VIM): >8 µg/mL
- MIC (Pseudomonas aeruginosa; P. aeruginosa CDC 516, KPC/AmpC): 0.25 µg/mL (≈ 0.692 µM)
- MIC (Pseudomonas aeruginosa; P. aeruginosa CDC 518, KPC/AmpC): >8 µg/mL
Compound: C[C@H]1COc2c(N3CCN(C)CC3)c(F)cc3c(=O)c(C(=O)O)cn1c23 [LVX]
